Reference: ChEMBL document CHEMBL5030517, “6-Halopyridylmethylidene Penicillin-Based Sulfones Efficiently Inactivate the Natural Resistance of Pseudomonas aeruginosa to β-Lactam Antibiotics” (J Med Chem, 2021)
In brackets after ≈: the same amount, converted by molar mass.

What was measured:
Format in all cases: functional
[1] = system: Pseudomonas aeruginosa; experiment: Antipseudomonal activity against pseudomonas aeruginosa Pseudomonas aeruginosa 36/14-210 (ST-235) assessed as AmpC RNA level relative to Pseudomonas aeruginosa PAO1
[2] = system: Pseudomonas aeruginosa; experiment: Antipseudomonal activity against pseudomonas aeruginosa Pseudomonas aeruginosa PAHUAC-14 (ST-966) assessed as AmpC RNA level relative to Pseudomonas aeruginosa PAO1
[3] = system: Pseudomonas aeruginosa; experiment: Antibacterial activity against Pseudomonas aeruginosa PAO1 deltadacBdeltapbpGdeltadacC by broth microdilution method
[4] = system: Pseudomonas aeruginosa; experiment: Antibacterial activity against Pseudomonas aeruginosa PAO1 6/04-224 (ST-175) by broth microdilution method
[5] = system: Pseudomonas aeruginosa; experiment: Antipseudomonal activity against pseudomonas aeruginosa PAOdeltaampD AmpC RNA level assessed as AmpC RNA level relative to Pseudomonas aeruginosa PAO1
[6] = system: Pseudomonas aeruginosa; experiment: Antipseudomonal activity against pseudomonas aeruginosa PAOdeltaC AmpC RNA level assessed as AmpC RNA level relative to Pseudomonas aeruginosa PAO1
[7] = system: Pseudomonas aeruginosa; experiment: Antipseudomonal activity against pseudomonas aeruginosa PAOdeltaC+pUCP-(PDC-1) assessed as AmpC RNA level relative to Pseudomonas aeruginosa PAO1
[8] = system: Pseudomonas aeruginosa; experiment: Antibacterial activity against Pseudomonas aeruginosa PAO1 deltaC+pUCP-(PDC-5) by broth microdilution method
[9] = system: Pseudomonas aeruginosa; experiment: Antibacterial activity against Pseudomonas aeruginosa PAO1 23/14-053 (ST-309) by broth microdilution method
[10] = system: Pseudomonas aeruginosa; experiment: Antibacterial activity against Pseudomonas aeruginosa PAO1 deltadacBdeltaampD by broth microdilution method
[11] = system: Pseudomonas aeruginosa; experiment: Antibacterial activity against Pseudomonas aeruginosa PAO1 53/22-113 (ST-244) by broth microdilution method
[12] = system: Pseudomonas aeruginosa; experiment: Antibacterial activity against Pseudomonas aeruginosa PAO1 deltaampD by broth microdilution method
[13] = system: Pseudomonas aeruginosa; experiment: Antibacterial activity against Pseudomonas aeruginosa PAO1 36/14-210 (ST-235) by broth microdilution method
[14] = system: Pseudomonas aeruginosa; experiment: Antibacterial activity against Pseudomonas aeruginosa PAO1 17/14-017 (ST-235) by broth microdilution method
[15] = system: Pseudomonas aeruginosa; experiment: Antibacterial activity against Pseudomonas aeruginosa PAO1 13/09-018 (ST-175) by broth microdilution method
[16] = system: Pseudomonas aeruginosa; experiment: Antibacterial activity against Pseudomonas aeruginosa PAO1 PAHUAC-14 (ST-966) by broth microdilution method
[17] = system: Pseudomonas aeruginosa; experiment: Antibacterial activity against Pseudomonas aeruginosa PAO1 by broth microdilution method
[18] = system: Pseudomonas aeruginosa; experiment: Antibacterial activity against Pseudomonas aeruginosa PAO1 deltadacBdeltadacC by broth microdilution method
[19] = system: Pseudomonas aeruginosa; experiment: Antipseudomonal activity against pseudomonas aeruginosa Pseudomonas aeruginosa 53/22-113 (ST-244) assessed as AmpC RNA level relative to Pseudomonas aeruginosa PAO1
[20] = system: Pseudomonas aeruginosa; experiment: Antipseudomonal activity against pseudomonas aeruginosa Pseudomonas aeruginosa PAHUAC-27(ST-22) assessed as AmpC RNA level relative to Pseudomonas aeruginosa PAO1
[21] = system: Pseudomonas aeruginosa; experiment: Antibacterial activity against Pseudomonas aeruginosa PAO1 PAHUAC-27(ST-22) by broth microdilution method
[22] = system: Pseudomonas aeruginosa; experiment: Antipseudomonal activity against pseudomonas aeruginosa PAO deltaDdeltsDh2deltaDh3 assessed as AmpC RNA level relative to Pseudomonas aeruginosa PAO1
[23] = system: Pseudomonas aeruginosa; experiment: Antipseudomonal activity against pseudomonas aeruginosa Pseudomonas aeruginosa 23/14-053 (ST-309) assessed as AmpC RNA level relative to Pseudomonas aeruginosa PAO1
[24] = system: Pseudomonas aeruginosa; experiment: Antibacterial activity against Pseudomonas aeruginosa PAO1 deltadacB by broth microdilution method
[25] = system: Pseudomonas aeruginosa; experiment: Antipseudomonal activity against pseudomonas aeruginosa PAO1 AmpC RNA level assessed as AmpC RNA level relative to Pseudomonas aeruginosa PAO1
[26] = system: Pseudomonas aeruginosa; experiment: Antipseudomonal activity against pseudomonas aeruginosa Pseudomonas aeruginosa 17/14-017 (ST-235) assessed as AmpC RNA level relative to Pseudomonas aeruginosa PAO1
[27] = system: Pseudomonas aeruginosa; experiment: Antipseudomonal activity against pseudomonas aeruginosa PAO deltadacBdeltadacC assessed as AmpC RNA expression by RT-PCR analysis relative to Pseudomonas aeruginosa PAO1
[28] = system: Pseudomonas aeruginosa; experiment: Antipseudomonal activity against pseudomonas aeruginosa PAOdeltaC+pUCP-(PDC-5) assessed as AmpC RNA level relative to Pseudomonas aeruginosa PAO1
[29] = system: Pseudomonas aeruginosa; experiment: Antipseudomonal activity against pseudomonas aeruginosa Pseudomonas aeruginosa 6/04-224 (ST-175) assessed as AmpC RNA level relative to Pseudomonas aeruginosa PAO1
[30] = system: Pseudomonas aeruginosa; experiment: Antipseudomonal activity against Pseudomonas aeruginosa PAO1 deltadacB assessed as AmpC RNA expression by RT-PCR analysis relative to Pseudomonas aeruginosa PAO1
[31] = system: Pseudomonas aeruginosa; experiment: Antibacterial activity against Pseudomonas aeruginosa PAO1 deltaC+pUCP-(PDC-1) by broth microdilution method
[32] = system: Pseudomonas aeruginosa; experiment: Antibacterial activity against Pseudomonas aeruginosa PAO1 deltaDdeltsDh2deltaDh3 by broth microdilution method
[33] = system: Pseudomonas aeruginosa; experiment: Antipseudomonal activity against pseudomonas aeruginosa PAO deltadacBdeltaampD assessed as AmpC RNA expression by RT-PCR analysis Pseudomonas aeruginosa PAO1
[34] = system: Pseudomonas aeruginosa; experiment: Antibacterial activity against PAOdeltaC by broth microdilution method
[35] = system: Pseudomonas aeruginosa; experiment: Antipseudomonal activity against pseudomonas aeruginosa Pseudomonas aeruginosa 13/09-018 (ST-175) assessed as AmpC RNA level relative to Pseudomonas aeruginosa PAO1
[36] = system: Pseudomonas aeruginosa; experiment: Antipseudomonal activity against pseudomonas aeruginosa PAO deltadacBdeltapbpGdeltadacC assessed as AmpC RNA level relative to Pseudomonas aeruginosa PAO1

For CC(C)(O/N=C(\C(=O)N[C@@H]1C(=O)N2C(C(=O)[O-])=C(C[n+]3ccccc3)CS[C@H]12)c1csc(N)n1)C(=O)O [CEFTAZIDIME], the “fold change (FC)” value [1] was 18.6, the “fold change (FC)” value [2] was 586.3 and the MIC [3] was 16 µg/mL (≈ 29.3 µM). For the same compound, the MIC [4] was 32 µg/mL (≈ 58.5 µM), the “fold change (FC)” value [5] was 51.4 and the “fold change (FC)” value [6] was 0. For the same compound, the “fold change (FC)” value [7] was 1933.4, the MIC [8] was 16 µg/mL (≈ 29.3 µM) and the MIC [9] was 8 µg/mL (≈ 14.6 µM). It also gave an MIC [10] of 32 µg/mL (≈ 58.5 µM), an MIC [11] of 64 µg/mL (≈ 117 µM) and an MIC [12] of 16 µg/mL (≈ 29.3 µM). For the same compound, the MIC [13] was 128 µg/mL (≈ 234 µM), the MIC [14] was 16 µg/mL (≈ 29.3 µM) and the MIC [15] was 8 µg/mL (≈ 14.6 µM). For the same compound, the MIC [16] was 64 µg/mL (≈ 117 µM), the MIC [17] was 1 µg/mL (≈ 1.83 µM) and the MIC [18] was 16 µg/mL (≈ 29.3 µM). For the same compound, the “fold change (FC)” value [19] was 1415.3, the “fold change (FC)” value [20] was 326.4 and the MIC [21] was 32 µg/mL (≈ 58.5 µM). For the same compound, the “fold change (FC)” value [22] was 1030.2, the “fold change (FC)” value [23] was 6.4 and the MIC [24] was 16 µg/mL (≈ 29.3 µM). The “fold change (FC)” value [25] was 1, the “fold change (FC)” value [26] was 32.8 and the “fold change (FC)” value [27] was 472.3. For the same compound, the “fold change (FC)” value [28] was 4084.8, the “fold change (FC)” value [29] was 10.1 and the FC [30] was 36 µg/mL. For the same compound, the MIC [31] was 16 µg/mL (≈ 29.3 µM), the MIC [32] was 32 µg/mL (≈ 58.5 µM) and the “fold change (FC)” value [33] was 1021.4. For the same compound, the MIC [34] was 1 µg/mL (≈ 1.83 µM), the “fold change (FC)” value [35] was 2.4 and the “fold change (FC)” value [36] was 1109.9.
